In patent publication US10221197B2, “Phosphatidylinositol 3-kinase inhibitors” (Gilead Sciences, Inc., priority 2014, dated 2019):
pIC50: −log10 of the molar value.

Legend:
Type in all cases: biochemical
PI3Kδ = PI3Kδ (Homo sapiens (Human), UniProt O00329); test: TR-FRET enzymatic assay of PI3K isoforms (PI3Kδ); conditions: 2×Km ATP, 2 μM PIP2, incubated for 30 minutes at 25° C., read-out: δ IC50
Description: (§1) The compounds of formula (I) were characterized for their enzymatic activity against the PI3K isoforms. Certain compounds of the present application, including certain compounds of formula (II) and (III) were also characterized for their enzymatic activity against PI3K isoforms. The activities were measured using a time-resolved fluorescence resonance energy transfer (TR-FRET) assay.

PI3Kγ = PI3Kγ (Homo sapiens (Human), UniProt P48736); test: TR-FRET enzymatic assay of PI3K isoforms (PI3Kγ); conditions: TR-FRET, 2×Km ATP, 2 μM PIP2, PI3Kγ at 2 nM, incubated for 30 minutes at 25° C.; read-out: γ IC50
Description: as §1

PI3Kβ = PI3Kβ (Homo sapiens (Human), UniProt P42338); test: TR-FRET enzymatic assay of PI3K isoforms (PI3Kβ); conditions: TR-FRET, 2×Km ATP, 2 μM PIP2, incubated for 30 minutes at 25° C.; read-out: β IC50
Description: as §1

Sequence of PI3Kβ (P42338 whole entry, canonical isoform): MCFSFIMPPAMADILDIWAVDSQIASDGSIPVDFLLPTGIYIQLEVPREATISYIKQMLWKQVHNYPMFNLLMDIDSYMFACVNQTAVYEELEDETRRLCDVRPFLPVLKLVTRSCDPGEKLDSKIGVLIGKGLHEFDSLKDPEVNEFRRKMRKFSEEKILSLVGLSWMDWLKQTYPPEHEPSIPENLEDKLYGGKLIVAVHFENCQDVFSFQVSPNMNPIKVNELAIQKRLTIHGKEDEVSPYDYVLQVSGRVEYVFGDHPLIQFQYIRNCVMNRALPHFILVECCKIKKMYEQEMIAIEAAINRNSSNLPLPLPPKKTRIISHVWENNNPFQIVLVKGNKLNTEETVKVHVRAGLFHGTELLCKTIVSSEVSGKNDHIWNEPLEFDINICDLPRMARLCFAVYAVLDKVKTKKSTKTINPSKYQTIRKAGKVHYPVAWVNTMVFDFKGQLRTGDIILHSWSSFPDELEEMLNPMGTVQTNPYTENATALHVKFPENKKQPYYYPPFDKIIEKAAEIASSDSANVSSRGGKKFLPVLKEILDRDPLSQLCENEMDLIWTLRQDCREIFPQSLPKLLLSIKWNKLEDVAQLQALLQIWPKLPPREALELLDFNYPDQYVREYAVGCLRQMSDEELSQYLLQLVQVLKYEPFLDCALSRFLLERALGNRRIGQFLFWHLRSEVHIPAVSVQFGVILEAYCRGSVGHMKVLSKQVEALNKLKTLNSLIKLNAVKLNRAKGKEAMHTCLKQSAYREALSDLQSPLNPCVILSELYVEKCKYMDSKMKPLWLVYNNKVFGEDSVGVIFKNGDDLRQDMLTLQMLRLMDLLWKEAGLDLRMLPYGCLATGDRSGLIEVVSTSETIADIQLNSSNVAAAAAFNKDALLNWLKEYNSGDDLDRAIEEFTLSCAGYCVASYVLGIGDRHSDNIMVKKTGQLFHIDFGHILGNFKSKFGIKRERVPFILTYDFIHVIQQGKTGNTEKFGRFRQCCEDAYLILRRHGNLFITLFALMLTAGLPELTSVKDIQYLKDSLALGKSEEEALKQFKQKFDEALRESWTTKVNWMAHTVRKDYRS
Sequence of PI3Kβ (P27986 whole entry partner, canonical isoform): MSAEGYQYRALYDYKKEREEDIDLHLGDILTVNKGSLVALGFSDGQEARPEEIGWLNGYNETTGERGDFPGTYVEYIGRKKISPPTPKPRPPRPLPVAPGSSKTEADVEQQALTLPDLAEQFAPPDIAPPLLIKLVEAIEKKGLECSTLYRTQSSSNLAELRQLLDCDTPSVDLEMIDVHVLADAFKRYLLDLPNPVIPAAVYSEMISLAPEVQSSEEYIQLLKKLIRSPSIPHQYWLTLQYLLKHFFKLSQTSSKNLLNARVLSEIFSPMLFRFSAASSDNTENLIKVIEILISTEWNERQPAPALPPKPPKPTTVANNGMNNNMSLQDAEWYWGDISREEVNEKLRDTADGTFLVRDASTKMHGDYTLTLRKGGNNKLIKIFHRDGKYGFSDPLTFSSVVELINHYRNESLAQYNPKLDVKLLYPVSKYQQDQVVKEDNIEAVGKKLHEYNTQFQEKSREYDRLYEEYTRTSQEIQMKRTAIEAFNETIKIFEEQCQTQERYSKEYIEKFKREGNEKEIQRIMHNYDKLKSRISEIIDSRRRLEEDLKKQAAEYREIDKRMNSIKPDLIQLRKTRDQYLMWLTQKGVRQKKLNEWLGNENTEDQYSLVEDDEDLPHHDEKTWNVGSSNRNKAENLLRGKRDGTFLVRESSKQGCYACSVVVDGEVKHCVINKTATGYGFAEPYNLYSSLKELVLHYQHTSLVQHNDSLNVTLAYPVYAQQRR
Sequence of PI3Kγ (P48736 whole entry, canonical isoform): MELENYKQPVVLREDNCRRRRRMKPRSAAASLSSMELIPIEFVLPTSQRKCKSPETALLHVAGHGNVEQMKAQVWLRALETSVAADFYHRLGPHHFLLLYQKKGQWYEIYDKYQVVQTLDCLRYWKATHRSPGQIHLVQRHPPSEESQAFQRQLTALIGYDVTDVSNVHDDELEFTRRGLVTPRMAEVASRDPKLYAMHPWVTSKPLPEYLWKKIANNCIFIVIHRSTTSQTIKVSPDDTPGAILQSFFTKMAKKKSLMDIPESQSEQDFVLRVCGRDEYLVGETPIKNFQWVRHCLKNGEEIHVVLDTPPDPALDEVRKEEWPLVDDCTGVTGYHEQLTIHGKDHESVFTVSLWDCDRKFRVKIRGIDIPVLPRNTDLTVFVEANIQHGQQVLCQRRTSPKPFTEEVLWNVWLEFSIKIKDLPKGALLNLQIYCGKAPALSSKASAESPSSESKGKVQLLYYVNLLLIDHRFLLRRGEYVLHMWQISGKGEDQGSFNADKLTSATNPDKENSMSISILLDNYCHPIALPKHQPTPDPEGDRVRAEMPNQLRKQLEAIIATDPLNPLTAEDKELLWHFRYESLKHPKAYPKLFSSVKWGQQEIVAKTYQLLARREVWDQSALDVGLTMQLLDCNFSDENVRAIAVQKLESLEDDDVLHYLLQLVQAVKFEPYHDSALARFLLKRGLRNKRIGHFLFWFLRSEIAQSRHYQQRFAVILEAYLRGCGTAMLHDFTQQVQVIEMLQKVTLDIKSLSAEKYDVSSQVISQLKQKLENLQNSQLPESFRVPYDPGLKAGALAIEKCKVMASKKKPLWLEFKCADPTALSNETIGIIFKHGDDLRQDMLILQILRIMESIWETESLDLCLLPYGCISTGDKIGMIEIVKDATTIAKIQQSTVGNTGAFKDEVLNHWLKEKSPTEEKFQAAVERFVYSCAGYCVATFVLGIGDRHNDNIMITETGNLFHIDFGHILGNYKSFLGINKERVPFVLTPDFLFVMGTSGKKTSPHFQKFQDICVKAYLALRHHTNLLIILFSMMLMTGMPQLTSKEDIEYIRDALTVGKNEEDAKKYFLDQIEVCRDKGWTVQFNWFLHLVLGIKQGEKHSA
Sequence of PI3Kγ (Q8WYR1 whole entry partner, canonical isoform): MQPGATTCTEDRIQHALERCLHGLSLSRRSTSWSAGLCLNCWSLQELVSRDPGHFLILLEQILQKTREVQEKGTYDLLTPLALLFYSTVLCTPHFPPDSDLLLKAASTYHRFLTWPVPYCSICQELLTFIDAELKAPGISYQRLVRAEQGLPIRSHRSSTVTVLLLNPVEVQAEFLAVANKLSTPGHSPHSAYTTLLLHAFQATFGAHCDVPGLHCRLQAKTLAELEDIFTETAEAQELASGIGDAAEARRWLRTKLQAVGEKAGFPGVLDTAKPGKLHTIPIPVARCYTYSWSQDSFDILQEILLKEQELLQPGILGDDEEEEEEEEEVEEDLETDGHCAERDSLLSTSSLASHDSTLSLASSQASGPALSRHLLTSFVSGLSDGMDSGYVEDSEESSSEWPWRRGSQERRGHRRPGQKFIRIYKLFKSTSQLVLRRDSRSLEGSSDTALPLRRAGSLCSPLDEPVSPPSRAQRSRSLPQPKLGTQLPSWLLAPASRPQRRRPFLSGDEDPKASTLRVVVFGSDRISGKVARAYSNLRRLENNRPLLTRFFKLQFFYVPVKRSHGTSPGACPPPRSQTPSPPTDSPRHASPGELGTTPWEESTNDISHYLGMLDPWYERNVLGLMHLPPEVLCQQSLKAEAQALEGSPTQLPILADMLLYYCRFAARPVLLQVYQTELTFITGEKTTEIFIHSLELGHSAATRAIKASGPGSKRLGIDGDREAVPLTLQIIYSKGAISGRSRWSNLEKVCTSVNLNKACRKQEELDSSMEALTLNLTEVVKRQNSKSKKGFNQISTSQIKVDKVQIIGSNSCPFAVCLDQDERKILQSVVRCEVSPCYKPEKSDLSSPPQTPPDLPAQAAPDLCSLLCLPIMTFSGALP
Sequence of PI3Kδ (O00329 whole entry, canonical isoform): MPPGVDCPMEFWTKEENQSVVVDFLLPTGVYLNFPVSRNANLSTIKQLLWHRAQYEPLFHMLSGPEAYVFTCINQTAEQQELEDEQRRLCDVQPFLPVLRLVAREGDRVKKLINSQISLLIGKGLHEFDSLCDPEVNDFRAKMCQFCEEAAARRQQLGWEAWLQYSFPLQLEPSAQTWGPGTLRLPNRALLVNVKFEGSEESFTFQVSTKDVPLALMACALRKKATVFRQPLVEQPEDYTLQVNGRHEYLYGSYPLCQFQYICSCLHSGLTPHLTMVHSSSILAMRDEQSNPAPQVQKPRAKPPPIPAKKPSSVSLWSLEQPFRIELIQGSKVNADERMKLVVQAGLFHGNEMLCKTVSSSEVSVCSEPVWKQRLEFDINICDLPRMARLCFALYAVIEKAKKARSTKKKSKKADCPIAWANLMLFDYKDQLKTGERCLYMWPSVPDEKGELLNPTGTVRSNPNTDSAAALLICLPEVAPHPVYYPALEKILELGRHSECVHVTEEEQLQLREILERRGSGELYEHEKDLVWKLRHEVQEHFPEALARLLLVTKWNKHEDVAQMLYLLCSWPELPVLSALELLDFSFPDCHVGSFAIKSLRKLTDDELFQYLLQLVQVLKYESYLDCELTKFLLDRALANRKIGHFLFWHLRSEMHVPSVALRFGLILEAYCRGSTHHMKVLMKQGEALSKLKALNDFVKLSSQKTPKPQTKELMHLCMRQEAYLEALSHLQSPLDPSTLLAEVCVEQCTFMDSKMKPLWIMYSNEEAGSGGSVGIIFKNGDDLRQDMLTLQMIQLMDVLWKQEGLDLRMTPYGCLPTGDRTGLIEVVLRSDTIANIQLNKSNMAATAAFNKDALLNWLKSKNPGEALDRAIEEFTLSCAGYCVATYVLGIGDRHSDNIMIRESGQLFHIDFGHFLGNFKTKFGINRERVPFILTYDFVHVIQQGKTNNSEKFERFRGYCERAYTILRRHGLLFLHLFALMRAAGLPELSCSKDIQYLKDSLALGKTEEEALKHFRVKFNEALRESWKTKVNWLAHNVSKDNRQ
Sequence of PI3Kδ (P27986 whole entry partner, canonical isoform): as the sequence (P27986 whole entry partner, canonical isoform) above

For C[C@H](Nc1nc(N)nc(N)c1C#N)c1nc2cccc(Cl)c2c(=O)n1-c1cccc(C(N)=O)c1 [Compound 2, (S)-3-(5-chloro-2-(1-((2,6-diamino-5-cyanopyrimidin-4-yl)amino)ethyl)-4-oxoquinazolin-3(4H)-yl)benzamide], the pIC50 (PI3Kδ) was 9.30, the pIC50 (PI3Kγ) was 7.22 and the pIC50 (PI3Kβ) was 8.22.

C[C@H](Nc1nc(N)nc(N)c1C#N)c1nc2c(Cl)ccc(Cl)c2c(=O)n1-c1cccc(C(N)=O)c1 [Compound 3, (S)-3-(5,8-dichloro-2-(1-((2,6-diamino-5-cyanopyrimidin-4-yl)amino)ethyl)-4-oxoquinazolin-3(4H)-yl)benzamide] was tested, and the pIC50 (PI3Kδ) was 9.10, the pIC50 (PI3Kγ) was 6.34 and the pIC50 (PI3Kβ) was 7.92.

C[C@H](Nc1nc(N)nc(N)c1Cl)c1nc2c(Cl)ccc(Cl)c2c(=O)n1-c1cccc(C(N)=O)c1 [Compound 4, (S)-3-(5,8-dichloro-2-(1-((2,6-diamino-5-chloropyrimidin-4-yl)amino)ethyl)-4-oxoquinazolin-3(4H)-yl)benzamide] was tested, and the pIC50 (PI3Kδ) was 9.00, the pIC50 (PI3Kγ) was 5.36 and the pIC50 (PI3Kβ) was 7.54.

CC[C@H](Nc1nc(N)nc(N)c1Cl)c1nc2cccc(Cl)c2c(=O)n1-c1cccc(C(N)=O)c1 [Compound 7, (S)-3-(5-chloro-2-(1-((2,6-diamino-5-chloropyrimidin-4-yl)amino)propyl)-4-oxoquinazolin-3(4H)-yl)benzamide] gave a pIC50 (PI3Kδ) of 9.00, a pIC50 (PI3Kγ) of 5.57 and a pIC50 (PI3Kβ) of 8.15.

Molecule CC[C@H](Nc1nc(N)nc(N)c1C#N)c1nc2cccc(Cl)c2c(=O)n1-c1cccc(C(N)=O)c1 [Compound 8, (S)-3-(5-chloro-2-(1-((2,6-diamino-5-cyanopyrimidin-4-yl)amino)propyl)-4-oxoquinazolin-3(4H)-yl)benzamide] has a pIC50 (PI3Kδ) of 9.40, a pIC50 (PI3Kγ) of 6.70 and a pIC50 (PI3Kβ) of 8.70.

For N#Cc1c(N)nc(N)nc1N[C@H](c1nc2cccc(Cl)c2c(=O)n1-c1cccc(C(N)=O)c1)C1CC1 [Compound 9, (S)-3-(5-chloro-2-(cyclopropyl((2,6-diamino-5-cyanopyrimidin-4-yl)amino)methyl)-4-oxoquinazolin-3(4H)-yl)benzamide], the pIC50 (PI3Kδ) was 9.22, the pIC50 (PI3Kγ) was 6.66 and the pIC50 (PI3Kβ) was 8.70.

NC(=O)c1cccc(-n2c([C@@H](Nc3nc(N)nc(N)c3Cl)C3CC3)nc3cccc(Cl)c3c2=O)c1 [Compound 10, (S)-3-(5-chloro-2-(cyclopropyl((2,6-diamino-5-chloropyrimidin-4-yl)amino)methyl)-4-oxoquinazolin-3(4H)-yl)benzamide] gave a pIC50 (PI3Kδ) of 9.00, a pIC50 (PI3Kγ) of 5.57 and a pIC50 (PI3Kβ) of 8.15.

Molecule NC(=O)c1cccc(-n2c([C@@H](Nc3nc(N)nc(N)c3Cl)C3CC3)nc3c(Cl)ccc(Cl)c3c2=O)c1 [Compound 11, (S)-3-(5,8-dichloro-2-(cyclopropyl((2,6-diamino-5-chloropyrimidin-4-yl)amino)methyl)-4-oxoquinazolin-3(4H)-yl)benzamide] has a pIC50 (PI3Kδ) of 8.52, a pIC50 (PI3Kγ) of 5.07 and a pIC50 (PI3Kβ) of 7.43.

N#Cc1c(N)nc(N)nc1N[C@H](c1nc2c(Cl)ccc(Cl)c2c(=O)n1-c1cccc(C(N)=O)c1)C1CC1 [Compound 12, (S)-3-(5,8-dichloro-2-(cyclopropyl((2,6-diamnino-5-cyanopyrimidin-4-yl)amino)methyl)-4-oxoquinazolin-3(4H)-yl)benzamide] showed a pIC50 (PI3Kδ) of 9.52, a pIC50 (PI3Kγ) of 6.64 and a pIC50 (PI3Kβ) of 8.22.

Cc1nc(N)nc(N[C@H](c2nc3c(F)ccc(Cl)c3c(=O)n2-c2cccc(C(N)=O)c2)C2CC2)c1C#N [Compound 14, (S)-3-(2-(((2-amino-5-cyano-6-methylpyrimidin-4-yl)amino)(cyclopropyl)methyl)-5-chloro-8-fluoro-4-oxoquinazolin-3(4H)-yl)benzamide] showed a pIC50 (PI3Kδ) of 9.00, a pIC50 (PI3Kγ) of 6.44 and a pIC50 (PI3Kβ) of 8.00.

With N#Cc1c(N)nc(N)nc1N[C@H](c1nc2c(F)ccc(Cl)c2c(=O)n1-c1cccc(C(N)=O)c1)C1CC1 [Compound 15, (S)-3-(5-chloro-2-(cyclopropyl((2,6-diamino-5-cyanopyrimidin-4-yl)amino)methyl)-8-fluoro-4-oxoquinazolin-3(4H)-yl)benzamide] the pIC50 (PI3Kδ) was 9.00, the pIC50 (PI3Kγ) was 6.48 and the pIC50 (PI3Kβ) was 8.00.

Work on NC(=O)c1cccc(-n2c([C@@H](Nc3nc(N)nc(N)c3Cl)C3CC3)nc3c(F)ccc(Cl)c3c2=O)c1 [Compound 16, (S)-3-(5-chloro-2-(cyclopropyl((2,6-diamino-5-chloropyrimidin-4-yl)amino)methyl)-8-fluoro-4-oxoquinazolin-3(4H)-yl)benzamide] yielded a pIC50 (PI3Kδ) of 8.70, a pIC50 (PI3Kγ) of 5.49 and a pIC50 (PI3Kβ) of 7.77.

With CC[C@H](Nc1nc(N)nc(N)c1C#N)c1nc2c(Cl)ccc(Cl)c2c(=O)n1-c1cccc(C(N)=O)c1 [Compound 18, (S)-3-(5,8-dichloro-2-(1-((2,6-diamino-5-cyanopyrimidin-4-yl)amino)propyl)-4-oxoquinazolin-3(4H)-yl)benzamide] the pIC50 (PI3Kδ) was 9.30, the pIC50 (PI3Kγ) was 5.92 and the pIC50 (PI3Kβ) was 8.10.

Work on CC[C@H](Nc1nc(N)nc(N)c1Cl)c1nc2c(Cl)ccc(Cl)c2c(=O)n1-c1cccc(C(N)=O)c1 [Compound 19, (S)-3-(5,8-dichloro-2-(1-((2,6-diamino-5-chloropyrimidin-4-yl)amino)propyl)-4-oxoquinazolin-3(4H)-yl)benzamide] yielded a pIC50 (PI3Kδ) of 8.52, a pIC50 (PI3Kγ) of less than 5.00 and a pIC50 (PI3Kβ) of 7.55.

CCC[C@H](Nc1nc(N)nc(N)c1Cl)c1nc2c(Cl)ccc(Cl)c2c(=O)n1-c1cccc(C(N)=O)c1 [Compound 21, (S)-3-(5,8-dichloro-2-(1-((2,6-diamino-5-chloropyrimidin-4-yl)amino)butyl)-4-oxoquinazolin-3(4H)-yl)benzamide] showed a pIC50 (PI3Kδ) of 7.72, a pIC50 (PI3Kγ) of less than 5.00 and a pIC50 (PI3Kβ) of 6.71.

Molecule CCC[C@H](Nc1nc(N)nc(N)c1C#N)c1nc2cccc(Cl)c2c(=O)n1-c1cccc(C(N)=O)c1 [Compound 22, (S)-3-(5-chloro-2-(1-((2,6-diamino-5-cyanopyrimidin-4-yl)amino)butyl)-4-oxoquinazolin-3(4H)-yl)benzamide] has a pIC50 (PI3Kδ) of 9.15, a pIC50 (PI3Kγ) of 6.52 and a pIC50 (PI3Kβ) of 8.15.

CCC[C@H](Nc1nc(N)nc(N)c1Cl)c1nc2cccc(Cl)c2c(=O)n1-c1cccc(C(N)=O)c1 [Compound 23, (S)-3-(5-chloro-2-(1-((2,6-diamino-5-chloropyrimidin-4-yl)amino)butyl)-4-oxoquinazolin-3(4H)-yl)benzamide] gave a pIC50 (PI3Kδ) of 8.70, a pIC50 (PI3Kγ) of 5.41 and a pIC50 (PI3Kβ) of 7.92.

C[C@H](Nc1nc(N)nc(C(F)F)c1C#N)c1nc2c(F)ccc(Cl)c2c(=O)n1-c1cccc(C(N)=O)c1 [Compound 24, (S)-3-(2-(1-((2-amino-5-cyano-6-(difluoromethyl)pyrimidin-4-yl)amino)ethyl)-5-chloro-8-fluoro-4-oxoquinazolin-3(4H)-yl)benzamide] was tested, and the pIC50 (PI3Kδ) was 9.00, the pIC50 (PI3Kγ) was 6.18 and the pIC50 (PI3Kβ) was 7.60.

For C[C@H](Nc1nc(N)nc(C(F)F)c1C#N)c1nc2cccc(Cl)c2c(=O)n1-c1cccc(C(N)=O)c1 [Compound 25, (S)-3-(2-(1-((2-amino-5-cyano-6-(difluoromethyl)pyrimidin-4-yl)amino)ethyl)-5-chloro-4-oxoquinazolin-3(4H)-yl)benzamide], the pIC50 (PI3Kδ) was 9.00, the pIC50 (PI3Kγ) was 6.15 and the pIC50 (PI3Kβ) was 7.62.

C[C@H](Nc1nc(N)nc(C(F)F)c1C#N)c1nc2c(Cl)cc(F)cc2c(=O)n1-c1cccc(C(N)=O)c1 [Compound 26, (S)-3-(2-(1-((2-amino-5-cyano-6-(difluoromethyl)pyrimidin-4-yl)amino)ethyl)-8-chloro-6-fluoro-4-oxoquinazolin-3(4H)-yl)benzamide] was tested, and the pIC50 (PI3Kδ) was 7.92, the pIC50 (PI3Kγ) was 5.14 and the pIC50 (PI3Kβ) was 6.50.

In the case of NC(=O)c1cccc(-n2c([C@@H](Nc3nc(N)nc(N)c3Cl)C3CC3)nc3c(Cl)cc(F)cc3c2=O)c1 [Compound 28, (S)-3-(8-chloro-2-(cyclopropyl((2,6-diamino-5-chloropyrimidin-4-yl)amino)methyl)-6-fluoro-4-oxoquinazolin-3(4H)-yl)benzamide], the pIC50 (PI3Kδ) was 7.34, the pIC50 (PI3Kγ) was less than 5.00 and the pIC50 (PI3Kβ) was 6.57.

Work on C[C@H](Nc1nc(N)nc(N)c1Cl)c1nc2c(Cl)cc(F)cc2c(=O)n1-c1cccc(C(N)=O)c1 [Compound 30, (S)-3-(8-chloro-2-(1-((2,6-diamino-5-chloropyrimidin-4-yl)amino)ethyl)-6-fluoro-4-oxoquinazolin-3(4H)-yl)benzamide] yielded a pIC50 (PI3Kδ) of 7.66, a pIC50 (PI3Kγ) of less than 5.00 and a pIC50 (PI3Kβ) of 6.60.

Molecule C[C@H](Nc1nc(N)nc(N)c1C#N)c1nc2c(C#N)cc(F)cc2c(=O)n1-c1cccc(C(N)=O)c1 [Compound 31, (S)-3-(8-cyano-2-(1-((2,6-diamino-5-cyanopyrimidin-4-yl)amino)ethyl)-6-fluoro-4-oxoquinazolin-3(4H)-yl)benzamide] has a pIC50 (PI3Kδ) of 8.70, a pIC50 (PI3Kγ) of 5.96 and a pIC50 (PI3Kβ) of 7.68.

In the case of N#Cc1c(N)nc(N)nc1N[C@H](c1nc2c(C#N)cc(F)cc2c(=O)n1-c1cccc(C(N)=O)c1)C1CC1 [Compound 32, (S)-3-(8-cyano-2-(cyclopropyl((2,6-diamino-5-cyanopyrimidin-4-yl)amino)methyl)-6-fluoro-4-oxoquinazolin-3(4H)-yl)benzamide], the pIC50 (PI3Kδ) was 8.40, the pIC50 (PI3Kγ) was 5.74 and the pIC50 (PI3Kβ) was 7.60.

With CC[C@H](Nc1nc(N)nc(N)c1C#N)c1nc2cccc(C(F)F)c2c(=O)n1-c1cccc(C(N)=O)c1 [Compound 33, (S)-3-(2-(1-((2,6-diamino-5-cyanopyrimidin-4-yl)amino)propyl)-5-(difluoromethyl)-4-oxoquinazolin-3(4H)-yl)benzamide] the pIC50 (PI3Kδ) was 9.10, the pIC50 (PI3Kγ) was 6.42 and the pIC50 (PI3Kβ) was 8.40.
